How the values were obtained:
[1] = target: Angiopoietin-1 receptor (Homo sapiens) (UniProt Q02763); assay: Inhibition of T7 bacteriophage fused human TIE2 at 10 uM by KINOMEscan analysis relative to control
[2] = target: STE20/SPS1-related proline-alanine-rich protein kinase (Homo sapiens) (UniProt Q9UEW8); assay: Inhibition of T7 bacteriophage fused human STK39 at 10 uM by KINOMEscan analysis relative to control
[3] = target: Activated CDC42 kinase 1 (Homo sapiens) (UniProt Q07912); assay: Inhibition of T7 bacteriophage fused human TNK2 at 10 uM by KINOMEscan analysis relative to control
[4] = target: Wee1-like protein kinase 2 (Homo sapiens) (UniProt P0C1S8); assay: Inhibition of T7 bacteriophage fused human WEE2 at 10 uM by KINOMEscan analysis relative to control
[5] = target: Serine/threonine-protein kinase 4 (Homo sapiens) (UniProt Q13043); assay: Inhibition of T7 bacteriophage fused human MST1 at 10 uM by KINOMEscan analysis relative to control; values are per cent of control
[6] = target: T1, Tyrosine-protein kinase receptor TYRO3 (Homo sapiens) (UniProt Q06418); assay: Inhibition of T7 bacteriophage fused human TYRO3 at 10 uM by KINOMEscan analysis relative to control
T1 sequence (whole entry): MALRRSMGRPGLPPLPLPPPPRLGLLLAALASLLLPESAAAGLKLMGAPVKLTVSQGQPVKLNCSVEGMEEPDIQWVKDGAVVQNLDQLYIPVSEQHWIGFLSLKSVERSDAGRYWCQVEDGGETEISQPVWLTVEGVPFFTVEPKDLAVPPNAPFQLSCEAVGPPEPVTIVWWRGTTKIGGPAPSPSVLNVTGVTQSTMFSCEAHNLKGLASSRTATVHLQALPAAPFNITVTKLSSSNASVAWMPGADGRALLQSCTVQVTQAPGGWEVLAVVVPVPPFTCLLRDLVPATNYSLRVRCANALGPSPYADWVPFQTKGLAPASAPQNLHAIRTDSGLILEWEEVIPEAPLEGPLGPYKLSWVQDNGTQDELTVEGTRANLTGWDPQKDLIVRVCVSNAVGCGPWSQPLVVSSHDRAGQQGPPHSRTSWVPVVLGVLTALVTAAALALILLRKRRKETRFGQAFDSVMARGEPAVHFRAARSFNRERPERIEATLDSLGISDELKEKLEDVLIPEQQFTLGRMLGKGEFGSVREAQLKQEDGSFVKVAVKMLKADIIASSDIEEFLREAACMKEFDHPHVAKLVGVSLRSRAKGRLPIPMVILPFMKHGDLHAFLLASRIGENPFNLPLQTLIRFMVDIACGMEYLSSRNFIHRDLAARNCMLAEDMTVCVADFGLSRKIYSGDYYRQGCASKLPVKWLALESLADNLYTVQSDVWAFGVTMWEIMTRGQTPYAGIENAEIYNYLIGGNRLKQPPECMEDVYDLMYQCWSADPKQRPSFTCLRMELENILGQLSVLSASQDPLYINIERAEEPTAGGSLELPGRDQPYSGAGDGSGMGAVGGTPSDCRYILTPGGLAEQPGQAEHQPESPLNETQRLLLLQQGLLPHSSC

[7] = target: Serine/threonine-protein kinase 32A (Homo sapiens) (UniProt Q8WU08); assay: Inhibition of T7 bacteriophage fused human YANK1 at 10 uM by KINOMEscan analysis relative to control
[8] = target: Ribosomal protein S6 kinase beta-1 (Homo sapiens) (UniProt P23443); assay: Inhibition of T7 bacteriophage fused human S6K1 at 10 uM by KINOMEscan analysis relative to control
[9] = target: T2, Serine/threonine-protein kinase ULK3 (Homo sapiens) (UniProt Q6PHR2); assay: Inhibition of T7 bacteriophage fused human ULK3 at 10 uM by KINOMEscan analysis relative to control
T2 sequence (whole entry): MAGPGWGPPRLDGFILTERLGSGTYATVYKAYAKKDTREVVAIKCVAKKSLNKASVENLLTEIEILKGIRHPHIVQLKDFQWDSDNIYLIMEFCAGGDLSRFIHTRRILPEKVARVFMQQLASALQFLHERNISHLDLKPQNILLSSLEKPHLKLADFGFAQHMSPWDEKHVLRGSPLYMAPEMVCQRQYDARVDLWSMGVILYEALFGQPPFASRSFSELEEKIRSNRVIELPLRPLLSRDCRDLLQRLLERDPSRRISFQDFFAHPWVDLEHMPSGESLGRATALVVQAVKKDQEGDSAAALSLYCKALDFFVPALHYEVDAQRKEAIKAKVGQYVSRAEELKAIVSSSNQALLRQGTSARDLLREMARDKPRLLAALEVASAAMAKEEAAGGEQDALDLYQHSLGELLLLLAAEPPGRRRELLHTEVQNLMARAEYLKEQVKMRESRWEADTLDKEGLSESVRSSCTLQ

[10] = target: Serine/threonine-protein kinase 32C (Homo sapiens) (UniProt Q86UX6); assay: Inhibition of T7 bacteriophage fused human YANK3 at 10 uM by KINOMEscan analysis relative to control
Sequence of Serine/threonine-protein kinase 32C (Homo sapiens) (Q86UX6 whole entry, the tested form may be a part): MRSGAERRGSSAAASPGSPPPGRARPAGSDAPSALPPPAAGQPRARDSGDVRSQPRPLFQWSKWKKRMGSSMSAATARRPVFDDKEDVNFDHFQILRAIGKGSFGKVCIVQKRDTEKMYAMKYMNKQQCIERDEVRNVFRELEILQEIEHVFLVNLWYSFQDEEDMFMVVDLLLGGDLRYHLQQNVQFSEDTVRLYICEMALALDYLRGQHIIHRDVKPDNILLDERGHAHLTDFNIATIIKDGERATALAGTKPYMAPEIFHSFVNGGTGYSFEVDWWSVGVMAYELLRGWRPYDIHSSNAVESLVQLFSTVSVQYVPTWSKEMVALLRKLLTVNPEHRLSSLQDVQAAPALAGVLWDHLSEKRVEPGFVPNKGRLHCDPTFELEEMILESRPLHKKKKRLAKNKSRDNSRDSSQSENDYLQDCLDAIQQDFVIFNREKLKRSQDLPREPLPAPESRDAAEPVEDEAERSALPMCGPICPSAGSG

Sequence of Activated CDC42 kinase 1 (Homo sapiens) (Q07912 whole entry, looked up, the tested form may be a part): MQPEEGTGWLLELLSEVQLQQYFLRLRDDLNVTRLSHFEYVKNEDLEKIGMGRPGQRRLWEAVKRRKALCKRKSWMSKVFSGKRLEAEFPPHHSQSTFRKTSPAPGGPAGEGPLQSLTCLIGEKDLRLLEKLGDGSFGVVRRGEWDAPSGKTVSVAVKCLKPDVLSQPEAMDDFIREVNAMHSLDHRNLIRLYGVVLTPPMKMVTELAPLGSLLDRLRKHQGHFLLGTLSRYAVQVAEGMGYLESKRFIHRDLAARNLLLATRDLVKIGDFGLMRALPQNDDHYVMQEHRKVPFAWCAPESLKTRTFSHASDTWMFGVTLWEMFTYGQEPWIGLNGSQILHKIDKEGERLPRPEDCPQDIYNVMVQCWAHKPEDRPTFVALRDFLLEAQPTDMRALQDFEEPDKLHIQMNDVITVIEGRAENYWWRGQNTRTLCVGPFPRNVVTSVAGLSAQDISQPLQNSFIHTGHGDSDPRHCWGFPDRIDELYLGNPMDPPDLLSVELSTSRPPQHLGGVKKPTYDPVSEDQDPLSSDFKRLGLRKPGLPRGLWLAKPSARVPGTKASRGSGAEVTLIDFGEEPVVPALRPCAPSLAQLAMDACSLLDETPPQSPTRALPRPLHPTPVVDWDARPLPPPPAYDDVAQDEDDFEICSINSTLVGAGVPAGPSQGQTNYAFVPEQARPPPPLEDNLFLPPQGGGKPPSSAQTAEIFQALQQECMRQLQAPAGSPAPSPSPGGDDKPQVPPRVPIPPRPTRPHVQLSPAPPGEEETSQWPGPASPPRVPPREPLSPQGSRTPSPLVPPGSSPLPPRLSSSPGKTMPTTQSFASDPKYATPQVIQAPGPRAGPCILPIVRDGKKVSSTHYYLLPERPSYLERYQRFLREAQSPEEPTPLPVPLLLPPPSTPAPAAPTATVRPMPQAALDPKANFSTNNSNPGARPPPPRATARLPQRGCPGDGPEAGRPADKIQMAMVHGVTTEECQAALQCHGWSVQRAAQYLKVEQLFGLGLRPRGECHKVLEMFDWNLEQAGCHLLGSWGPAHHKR
Sequence of Wee1-like protein kinase 2 (Homo sapiens) (P0C1S8 whole entry, looked up, the tested form may be a part): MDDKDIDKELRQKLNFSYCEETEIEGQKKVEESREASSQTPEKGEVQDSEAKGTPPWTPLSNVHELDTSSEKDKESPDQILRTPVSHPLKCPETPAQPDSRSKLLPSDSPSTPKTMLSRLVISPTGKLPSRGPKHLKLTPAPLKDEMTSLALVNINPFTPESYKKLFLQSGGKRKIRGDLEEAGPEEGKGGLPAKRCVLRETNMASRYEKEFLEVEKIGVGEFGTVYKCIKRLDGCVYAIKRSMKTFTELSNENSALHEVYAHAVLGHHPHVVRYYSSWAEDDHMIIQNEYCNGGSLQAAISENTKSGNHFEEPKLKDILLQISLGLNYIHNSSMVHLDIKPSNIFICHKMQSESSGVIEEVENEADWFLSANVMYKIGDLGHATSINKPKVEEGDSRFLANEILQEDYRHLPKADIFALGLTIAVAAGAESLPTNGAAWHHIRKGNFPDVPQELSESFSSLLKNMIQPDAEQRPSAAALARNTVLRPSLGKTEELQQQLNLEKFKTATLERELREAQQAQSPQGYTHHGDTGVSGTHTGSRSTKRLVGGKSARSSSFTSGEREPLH
Sequence of Serine/threonine-protein kinase 4 (Homo sapiens) (Q13043 whole entry, looked up, the tested form may be a part): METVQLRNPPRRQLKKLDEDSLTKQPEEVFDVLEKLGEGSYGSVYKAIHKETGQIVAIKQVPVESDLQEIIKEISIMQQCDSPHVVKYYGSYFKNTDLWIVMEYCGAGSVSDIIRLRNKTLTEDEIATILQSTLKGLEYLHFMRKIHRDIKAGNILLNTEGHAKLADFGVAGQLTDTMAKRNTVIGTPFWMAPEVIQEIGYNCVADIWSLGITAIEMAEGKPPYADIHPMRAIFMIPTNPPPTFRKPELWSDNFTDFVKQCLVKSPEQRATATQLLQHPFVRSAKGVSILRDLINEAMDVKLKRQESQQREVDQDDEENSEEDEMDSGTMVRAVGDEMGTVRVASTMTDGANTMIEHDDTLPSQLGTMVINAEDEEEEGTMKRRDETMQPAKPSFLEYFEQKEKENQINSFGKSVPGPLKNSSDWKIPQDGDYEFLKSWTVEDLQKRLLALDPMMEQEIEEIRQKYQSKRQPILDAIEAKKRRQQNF
Sequence of Ribosomal protein S6 kinase beta-1 (Homo sapiens) (P23443 whole entry, looked up, the tested form may be a part): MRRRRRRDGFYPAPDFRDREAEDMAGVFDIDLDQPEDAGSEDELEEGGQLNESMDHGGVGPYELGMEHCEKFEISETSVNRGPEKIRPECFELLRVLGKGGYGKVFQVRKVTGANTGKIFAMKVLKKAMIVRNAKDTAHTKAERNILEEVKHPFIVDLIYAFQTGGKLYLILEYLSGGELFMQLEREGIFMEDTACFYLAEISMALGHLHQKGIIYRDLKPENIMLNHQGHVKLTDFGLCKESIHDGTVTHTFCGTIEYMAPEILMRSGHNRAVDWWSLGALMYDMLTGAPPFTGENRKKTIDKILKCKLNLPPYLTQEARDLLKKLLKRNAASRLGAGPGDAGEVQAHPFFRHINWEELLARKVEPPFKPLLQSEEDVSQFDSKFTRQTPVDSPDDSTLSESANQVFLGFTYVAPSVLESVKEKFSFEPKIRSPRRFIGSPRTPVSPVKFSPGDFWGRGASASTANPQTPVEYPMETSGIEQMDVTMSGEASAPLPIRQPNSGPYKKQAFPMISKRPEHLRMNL
Sequence of Angiopoietin-1 receptor (Homo sapiens) (Q02763 whole entry, the tested form may be a part): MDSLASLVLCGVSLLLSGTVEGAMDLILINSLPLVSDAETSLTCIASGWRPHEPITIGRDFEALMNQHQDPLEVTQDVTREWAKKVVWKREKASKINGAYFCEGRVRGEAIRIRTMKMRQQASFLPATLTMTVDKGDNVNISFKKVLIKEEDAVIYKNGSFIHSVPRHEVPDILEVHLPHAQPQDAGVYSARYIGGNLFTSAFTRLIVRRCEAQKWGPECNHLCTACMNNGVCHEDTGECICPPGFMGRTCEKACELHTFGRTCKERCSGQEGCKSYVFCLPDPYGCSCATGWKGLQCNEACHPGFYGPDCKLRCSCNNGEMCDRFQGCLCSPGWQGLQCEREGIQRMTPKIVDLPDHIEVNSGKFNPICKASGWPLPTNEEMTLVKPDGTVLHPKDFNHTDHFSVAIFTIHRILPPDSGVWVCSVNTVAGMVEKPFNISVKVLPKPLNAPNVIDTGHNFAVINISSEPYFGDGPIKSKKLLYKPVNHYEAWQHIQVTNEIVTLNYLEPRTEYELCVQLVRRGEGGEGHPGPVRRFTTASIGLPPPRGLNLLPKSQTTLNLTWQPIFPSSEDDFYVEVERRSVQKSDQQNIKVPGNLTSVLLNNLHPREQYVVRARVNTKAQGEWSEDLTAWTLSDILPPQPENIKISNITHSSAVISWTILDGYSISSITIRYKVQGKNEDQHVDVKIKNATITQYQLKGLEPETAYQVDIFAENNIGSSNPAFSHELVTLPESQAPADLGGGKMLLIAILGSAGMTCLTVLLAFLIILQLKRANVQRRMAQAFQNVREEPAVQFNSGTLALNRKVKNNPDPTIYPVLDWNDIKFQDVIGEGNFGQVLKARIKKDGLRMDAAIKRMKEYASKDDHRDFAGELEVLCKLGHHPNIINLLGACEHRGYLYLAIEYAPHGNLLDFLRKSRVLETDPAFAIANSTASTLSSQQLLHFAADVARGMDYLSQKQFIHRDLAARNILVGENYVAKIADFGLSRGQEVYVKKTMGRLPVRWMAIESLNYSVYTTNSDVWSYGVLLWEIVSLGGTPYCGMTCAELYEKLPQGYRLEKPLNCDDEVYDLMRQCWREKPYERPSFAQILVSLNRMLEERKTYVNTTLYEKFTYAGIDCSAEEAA
Sequence of Serine/threonine-protein kinase 32A (Homo sapiens) (Q8WU08 whole entry, the tested form may be a part): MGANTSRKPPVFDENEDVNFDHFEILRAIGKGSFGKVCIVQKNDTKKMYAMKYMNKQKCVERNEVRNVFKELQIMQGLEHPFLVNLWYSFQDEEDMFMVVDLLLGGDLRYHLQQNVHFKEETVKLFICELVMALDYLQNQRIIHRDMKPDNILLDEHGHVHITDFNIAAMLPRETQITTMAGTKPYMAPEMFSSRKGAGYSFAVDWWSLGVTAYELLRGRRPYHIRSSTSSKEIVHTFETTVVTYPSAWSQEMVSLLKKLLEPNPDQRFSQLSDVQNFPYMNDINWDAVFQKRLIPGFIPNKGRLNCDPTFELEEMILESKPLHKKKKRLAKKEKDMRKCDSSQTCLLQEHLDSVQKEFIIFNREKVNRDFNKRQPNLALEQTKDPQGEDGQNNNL

Row | SMILES | inhibition [1] [%] | inhibition [2] [%] | inhibition [3] [%] | inhibition [4] [%] | residual activity [5] [%] | inhibition [6] [%] | inhibition [7] [%] | inhibition [8] [%] | inhibition [9] [%] | inhibition [10] [%]
1 | COc1cc(N2CCC(N3CCN(C)CC3)CC2)ccc1Nc1ncc2c(n1)N(C)c1ccccc1C(=O)N2C | 100 | 39 | 18 | 100 | 100 | 100 | 100 | 100 | 100 | 100
2 | COc1cc(C(=O)N2CCC(N3CCN(C)CC3)CC2)ccc1Nc1ncc2c(n1)N(C1CCCC1)c1ccccc1C(=O)N2C | 100 | 100 | 35 | 100 | 100 | 100 | 100 | 100 | 100 | 100
3 | CCOc1cc(C(=O)N2CCC(N3CCN(C)CC3)CC2)ccc1Nc1ncc2c(n1)N(C1CCCC1)c1ccccc1C(=O)N2C | 100 | 100 | 80 | 100 | 100 | 100 | 100 | 100 | 100 | 100

From ChEMBL document CHEMBL5678810
